Numbers after ± are expanded uncertainties.
Key:
[1] = 101.33 kPa, Liquid; for viscosity: Concentric cylinders viscometry; for mass density: Vibrating tube method
[2] = refractive index (Na D-line) (dimensionless); conditions: 101.33 kPa, Liquid, Standard Abbe refractometry

SMILES | viscosity ([1]; 288.15 K) [mPa·s] | mass density ([1]; 288.15 K) [kg/m3] | viscosity ([1]; 293.15 K) [mPa·s] | mass density ([1]; 293.15 K) [kg/m3] | viscosity ([1]; 298.15 K) [mPa·s] | mass density ([1]; 298.15 K) [kg/m3] | viscosity ([1]; 303.15 K) [mPa·s] | mass density ([1]; 303.15 K) [kg/m3] | viscosity ([1]; 308.15 K) [mPa·s] | mass density ([1]; 308.15 K) [kg/m3] | viscosity ([1]; 313.15 K) [mPa·s] | mass density ([1]; 313.15 K) [kg/m3] | viscosity ([1]; 318.15 K) [mPa·s] | mass density ([1]; 318.15 K) [kg/m3] | viscosity ([1]; 323.15 K) [mPa·s] | mass density ([1]; 323.15 K) [kg/m3] | viscosity ([1]; 328.15 K) [mPa·s] | mass density ([1]; 328.15 K) [kg/m3] | viscosity ([1]; 333.15 K) [mPa·s] | mass density ([1]; 333.15 K) [kg/m3] | also measured
CC(O)CO (stereo not given) [1,2-propanediol] | 82.86 ± 1.8 | 1039.87 ± 0.14 | 59.84 ± 1.2 | 1036.25 ± 0.14 | 44.19 ± 0.9 | 1032.59 ± 0.13 | 33.29 ± 0.68 | 1028.88 ± 0.13 | 25.54 ± 0.52 | 1025.14 ± 0.13 | 19.92 ± 0.41 | 1021.35 ± 0.13 | 15.79 ± 0.32 | 1017.52 ± 0.13 | 12.76 ± 0.26 | 1013.66 ± 0.13 | 10.35 ± 0.21 | 1009.75 ± 0.13 | 8.586 ± 0.18 | 1005.79 ± 0.13 | refractive index ([2]; 288.15 K): 1.43425 ± 0.00033; refractive index ([2]; 293.15 K): 1.4326 ± 0.00033; refractive index ([2]; 298.15 K): 1.43093 ± 0.00033; refractive index ([2]; 303.15 K): 1.42927 ± 0.00033; refractive index ([2]; 308.15 K): 1.4276 ± 0.00033; refractive index ([2]; 313.15 K): 1.4259 ± 0.00033; refractive index ([2]; 318.15 K): 1.42422 ± 0.00033; refractive index ([2]; 323.15 K): 1.42252 ± 0.00033; refractive index ([2]; 328.15 K): 1.42078 ± 0.00033; refractive index ([2]; 333.15 K): 1.41909 ± 0.00033
OCCCO [propan-1,3-diol] | 68.06 ± 1.5 | 1055.96 ± 0.95 | 52.75 ± 1.2 | 1052.87 ± 0.95 | 41.97 ± 0.95 | 1049.76 ± 0.94 | 33.56 ± 0.76 | 1046.64 ± 0.93 | 27.15 ± 0.61 | 1043.5 ± 0.93 | 22.22 ± 0.5 | 1040.35 ± 0.92 | 18.35 ± 0.41 | 1037.18 ± 0.91 | 15.29 ± 0.34 | 1033.98 ± 0.91 | 12.84 ± 0.29 | 1030.77 ± 0.9 | 10.96 ± 0.25 | 1027.53 ± 0.89 | refractive index ([2]; 288.15 K): 1.44073 ± 0.00051; refractive index ([2]; 293.15 K): 1.43932 ± 0.00051; refractive index ([2]; 298.15 K): 1.43792 ± 0.00051; refractive index ([2]; 303.15 K): 1.43654 ± 0.00051; refractive index ([2]; 308.15 K): 1.43513 ± 0.00051; refractive index ([2]; 313.15 K): 1.43375 ± 0.00051; refractive index ([2]; 318.15 K): 1.43232 ± 0.00051; refractive index ([2]; 323.15 K): 1.43087 ± 0.00051; refractive index ([2]; 328.15 K): 1.42945 ± 0.00051; refractive index ([2]; 333.15 K): 1.42803 ± 0.00051

— the NIST ThermoML archive (doi:10.1016/j.jct.2012.07.024)
